From patent US12077503B2, “Substituted cyclic amides and their use as herbicides” (FMC CORPORATION, priority 2015, dated 2024)
Read-outs that look alike come from different tables or passages of the source.

What was measured:
Experiment in all cases: Test A postemergence
Type in all cases: in vivo
[1] = tested on: corn (Zea mays); settings: Zea mays, post-emergence, 240 h; for plant injury at 125 g/ha / Corn plant response rating (crop injury, 0 = no effect, 100 = complete kill) at 125 g/ha: 125 g ai/ha; for Corn plant response rating (crop injury, 0 = no effect, 100 = complete kill) at 125 g/ha: Postemergence, visual injury after approximately 10 d, 0 to 100 scale where 0 is no effect and 100 is complete control
How it was run: (§1)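 Preemergence directed soil spray on seeded pots, or postemergence application to plants 2–10 cm, one- to two-leaf. Solvent mixture non-phytotoxic, with surfactant. Scored ~10 d later, visually, 0–100 vs untreated.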

[2] = tested on: wheat (Triticum aestivum); settings: Triticum aestivum, post-emergence, 240 h; for plant injury at 125 g/ha: 125 g ai/ha
How it was run: as §1

[3] = tested on: Galium (catchweed bedstraw, Galium aparine); settings: Galium, post-emergence, 240 h; for pest or weed control at 125 g/ha: 125 g ai/ha
How it was run: as §1

[4] = tested on: pigweed (Amaranthus retroflexus); settings: Amaranthus retroflexus, post-emergence, 240 h; for pest or weed control at 125 g/ha: 125 g ai/ha
How it was run: as §1

[5] = tested on: ryegrass, Italian (Italian ryegrass, Lolium multiflorum); settings: Lolium multiflorum, post-emergence, 240 h; for pest or weed control at 125 g/ha: 125 g ai/ha
How it was run: as §1

[6] = Postemergence, visual injury after approximately 10 d, 0 to 100 scale where 0 is no effect and 100 is complete control, read-out: Plant response rating, Wheat
[7] = Postemergence, visual injury after approximately 10 d, 0 to 100 scale where 0 is no effect and 100 is complete control, read-out: Plant response rating, Galium
[8] = Postemergence, visual injury after approximately 10 d, 0 to 100 scale where 0 is no effect and 100 is complete control, read-out: Plant response rating, Pigweed
[9] = Postemergence, visual injury after approximately 10 d, 0 to 100 scale where 0 is no effect and 100 is complete control, read-out: Plant response rating, Ryegrass, Italian

Structure (SMILES) | Corn plant response rating (crop injury, 0 = no effect, 100 = complete kill) at 125 g/ha [1] [%] | plant injury at 125 g/ha [2, 6] [%] | pest or weed control at 125 g/ha [3, 7] [%] | pest or weed control at 125 g/ha [4, 8] [%] | pest or weed control at 125 g/ha [5, 9] [%] | further results
CN1C[C@H](c2cc(F)c(C(F)(F)F)c(F)c2)[C@@H](C(=O)Nc2ccccc2F)C1=O [Compound 899] | – | – | – | – | – | plant injury at 125 g/ha ([1]; postemergence, visual injury rating after approximately 10 d, read-out: Corn plant response rating (0 to 100 scale, 0 no effect, 100 complete control)): 40%; plant injury at 125 g/ha ([2]; postemergence, visual injury rating after approximately 10 d, read-out: Wheat plant response rating (0 to 100 scale, 0 no effect, 100 complete control)): 30%; pest or weed control at 125 g/ha ([3]; postemergence, visual injury rating after approximately 10 d, read-out: Galium plant response rating (0 to 100 scale, 0 no effect, 100 complete control)): 0%; pest or weed control at 125 g/ha ([4]; postemergence, visual injury rating after approximately 10 d, read-out: Pigweed plant response rating (0 to 100 scale, 0 no effect, 100 complete control)): 0%; pest or weed control at 125 g/ha ([5]; postemergence, visual injury rating after approximately 10 d, read-out: Ryegrass, Italian plant response rating (0 to 100 scale, 0 no effect, 100 complete control)): 30%
COc1c(F)ccc([C@H]2CNC(=O)[C@@H]2C(=O)Nc2ccccc2S(C)(=O)=O)c1Cl [Compound 916] | 0 | 0 | 30 | 0 | 0 | –
CN1CC[C@H](c2cccc(Cl)c2)[C@@H](C(=O)Nc2ccccc2F)C1=O [Compound 922] | 0 | 0 | 0 | 0 | 0 | –
CN1CC[C@H](c2cccc(Cl)c2)[C@@H](C(=O)Nc2ccccc2S(C)(=O)=O)C1=O [Compound 923] | 0 | 0 | 0 | 0 | 0 | –
O=C(Nc1cccc(Cl)c1F)[C@H]1C(=O)N(C2CC2)CC[C@@H]1c1cccc(C(F)(F)F)c1 [Compound 926] | 0 | 0 | 0 | 0 | 0 | –
CS(=O)(=O)c1ccccc1NC(=O)[C@H]1C(=O)N(C2CC2)CC[C@@H]1c1cccc(C(F)(F)F)c1 [Compound 927] | 0 | 0 | 0 | 0 | 0 | –
CN1C[C@H](c2cc(F)cc(C(F)(F)F)c2)[C@@H](C(=O)Nc2cccc(Cl)c2F)C1=O [Compound 995] | 30 | 20 | 40 | 0 | 30 | –
Cc1cc([C@H]2CN(C)C(=O)[C@@H]2C(=O)Nc2ccccc2F)no1 [Compound 1194] | – | – | – | – | – | plant injury at 125 g/ha ([1]; postemergence, visual injury vs untreated controls after approx. 10 d, 0 = no effect, 100 = complete control, read-out: Corn plant response rating (0 to 100 scale)): 0%; plant injury at 500 g/ha ([1]; 500 g ai/ha, postemergence, 0 to 100 scale, 0 is no effect, 100 is complete control, read-out: Corn plant response rating): 0%; plant injury at 125 g/ha ([2]; postemergence, visual injury vs untreated controls after approx. 10 d, 0 = no effect, 100 = complete control, read-out: Wheat plant response rating (0 to 100 scale)): 0%; plant injury at 500 g/ha ([2]; 500 g ai/ha, postemergence, 0 to 100 scale, 0 is no effect, 100 is complete control, read-out: Wheat plant response rating): 0%; pest or weed control at 125 g/ha ([3]; postemergence, visual injury vs untreated controls after approx. 10 d, 0 = no effect, 100 = complete control, read-out: Galium plant response rating (0 to 100 scale)): 0%; pest or weed control at 500 g/ha ([3]; 500 g ai/ha, postemergence, 0 to 100 scale, 0 is no effect, 100 is complete control, read-out: Galium plant response rating): 0%; pest or weed control at 125 g/ha ([4]; postemergence, visual injury vs untreated controls after approx. 10 d, 0 = no effect, 100 = complete control, read-out: Pigweed plant response rating (0 to 100 scale)): 0%; pest or weed control at 500 g/ha ([4]; 500 g ai/ha, postemergence, 0 to 100 scale, 0 is no effect, 100 is complete control, read-out: Pigweed plant response rating): 0%; pest or weed control at 125 g/ha ([5]; postemergence, visual injury vs untreated controls after approx. 10 d, 0 = no effect, 100 = complete control, read-out: Ryegrass, Italian plant response rating (0 to 100 scale)): 0%; pest or weed control at 500 g/ha ([5]; 500 g ai/ha, postemergence, 0 to 100 scale, 0 is no effect, 100 is complete control, read-out: Ryegrass, Italian plant response rating): 0%
